Patent US20040162235A1, “Delivery of siRNA to cells using polyampholytes” (priority 2003, published 2004)
Where two headings read alike, the source gives them in different places. *1 amine or outer side, *2 acyl side, *3 side chain or, on linkers, in order; H or OH if unused. Where a SMILES comes first, the peptide text is derived from it. Where no end group is shown, it is not given here. The star is where a group is joined. Suc = O=C(CCC(=O)[*:2])[*:1]; X1 = C/C(C(=O)O)=C(\C)C(=O)*

Legend:
[1] = Red blood cell (RBC) hemolysis assay; assay type: cell-based; conditions: 37° C., read-out: Percent Hemolysis; for hemolysis at 30 min: red blood cells (washed, harvested from whole blood)
Procedure: C. […] RBCs were harvested by centrifuging whole blood for 4 min. They were washed three times with 100 mM dibasic sodium phosphate at the desired pH, and resuspended in the same buffer to yield the initial volume. They were diluted 10 times in the same buffer, and 200 μL of this suspension was used for each tube. This yields […] RBCs per tube. Each tube contained 800 μL of buffer, 200 μL of the RBC suspension, and the peptide with or without polymer. Each sample was then repeated to verify reproducibility. The tubes were incubated for 30 minutes in a 37° C. water bath. They were spun for 5 min at full speed in the microcentrifuge. Lysis was determined by measuring the absorbance of the supernatant at 541 nm, reflecting the amount of hemoglobin that had been released into the supernatant. Percent hemolysis was calculated assuming 100% lysis to be measured by the hemoglobin released by the red blood cells in water; controls of RBCs in buffer with no peptide were also run.

[2] = Lability at pH 5: conversion of maleamic acid to amine and anhydride, followed by TNBS; assay type: physicochemical; conditions: sodium acetate buffer pH 5
Procedure: A. DM-poly-L-lysine: Dimethyl maleamic modified poly-L-lysine (10 mg/mL) was incubated in 10 mM sodium acetate buffer pH 5. At various times, aliquots (10 μg) were removed and added to 0.5 mL of 100 mM borax solution containing 0.4 mM trinitrobenzenesulfonate (TNBS). After 30 min, the absorbance of the solution at 420 nm was measured. To determine the concentration of amines at each time point, the extinction coefficient was determined for the product of TNBS and poly-L-lysine. Using this extinction coefficient we were able to calculate the amount of amines and maleamic groups at each time point. A plot of In (At/A0) as a function of time was a straight line whose slope was the negative of the rate constant for the conversion of maleamic acid to amine and anhydride, where At is the concentration of maleamic acid at a time t and A0 is the initial concentration of maleamic acid. For two separate experiments we calculated rate constants of […] which correspond to half lives of roughly 10 and 4 minutes, respectively.
B. DM-KL3: Dimethyl maleamic modified KL3 (0.1 mg/mL) was incubated in 40 mM sodium acetate buffer pH 5 and 1 mM cetyltrimetylammonium bromide. At various times, 10 μg aliquots were removed and added to 0.05 mL 1 M borax solution containing 4 mM TNBS. After 30 min, the absorbance of the solution at 420 nm was measured. […]

Compound | hemolysis at 30 min ([1]; pH 5.4, 30 minutes) [%] | hemolysis at 30 min ([1]; pH 7.5, 30 minutes) [%] | hemolysis ([1]; pH 5.4, 30 minutes) [%] | hemolysis ([1]; pH 7.5, 30 minutes) [%] | half-life [2] [min] | rate constant for the conversion of maleamic acid to amine and anhydride [2] [min⁻¹]
CC[C@H](C)[C@H](NC(=O)CN)C(=O)NCC(=O)N[C@@H](C)C(=O)N[C@H](C(=O)N[C@@H](CC(C)C)C(=O)N[C@@H](CCCCN)C(=O)N[C@H](C(=O)N[C@@H](CC(C)C)C(=O)N[C@H](C(=O)N[C@H](C(=O)NCC(=O)N[C@@H](CC(C)C)C(=O)N1CCC[C@H]1C(=O)N[C@@H](C)C(=O)N[C@@H](CC(C)C)C(=O)N[C@H](C(=O)N[C@@H](CO)C(=O)N[C@@H](Cc1c[nH]c2ccccc12)C(=O)N[C@H](C(=O)N[C@@H](CCCCN)C(=O)N[C@@H](CCCNC(=N)N)C(=O)N[C@@H](CCCCN)C(=O)N[C@@H](CCCNC(=N)N)C(=O)N[C@@H](CCC(N)=O)C(=O)N[C@@H](CCC(N)=O)C(N)=O)[C@@H](C)CC)[C@@H](C)CC)[C@@H](C)O)[C@@H](C)O)C(C)C)C(C)C [Melittin, reference compound] | 85 | 92 | – | – | – | –
CC(C)C[C@H](NC(=O)[C@H](CC(C)C)NC(=O)[C@H](CCCCNC(=O)CCC(=O)O)NC(=O)[C@H](CC(C)C)NC(=O)[C@H](CC(C)C)NC(=O)[C@H](CC(C)C)NC(=O)[C@H](CCCCNC(=O)CCC(=O)O)NC(=O)[C@H](CC(C)C)NC(=O)[C@H](CC(C)C)NC(=O)[C@H](CCCCNC(=O)CCC(=O)O)NC(=O)[C@H](CC(C)C)NC(=O)[C@H](Cc1c[nH]c2ccccc12)NC(=O)[C@H](CC(C)C)NC(=O)[C@H](CCCCNC(=O)CCC(=O)O)NC(=O)[C@H](CC(C)C)NC(=O)[C@H](CC(C)C)NC(=O)[C@H](CC(C)C)NC(=O)[C@H](CCCCNC(=O)CCC(=O)O)NC(=O)[C@H](CC(C)C)NC(=O)[C@H](CC(C)C)NC(=O)[C@H](CCCCNC(=O)CCC(=O)O)NC(=O)CCC(=O)O)C(=O)O [Succinyl-KL3] (Suc-K(Suc)LLK(Suc)LLLK(Suc)LWLK(Suc)LLK(Suc)LLLK(Suc)LL-OH; N-terminus and C-terminus assumed) | – | – | 2 | 1.3 | – | –
C/C(C(=O)O)=C(\C)C(=O)NCCCC[C@H](NC(=O)/C(C)=C(/C)C(=O)O)C(=O)N[C@@H](CC(C)C)C(=O)N[C@@H](CC(C)C)C(=O)N[C@@H](CCCCNC(=O)/C(C)=C(/C)C(=O)O)C(=O)N[C@@H](CC(C)C)C(=O)N[C@@H](CC(C)C)C(=O)N[C@@H](CC(C)C)C(=O)N[C@@H](CCCCNC(=O)/C(C)=C(/C)C(=O)O)C(=O)N[C@@H](CC(C)C)C(=O)N[C@@H](Cc1c[nH]c2ccccc12)C(=O)N[C@@H](CC(C)C)C(=O)N[C@@H](CCCCNC(=O)/C(C)=C(/C)C(=O)O)C(=O)N[C@@H](CC(C)C)C(=O)N[C@@H](CC(C)C)C(=O)N[C@@H](CCCCNC(=O)/C(C)=C(/C)C(=O)O)C(=O)N[C@@H](CC(C)C)C(=O)N[C@@H](CC(C)C)C(=O)N[C@@H](CC(C)C)C(=O)N[C@@H](CCCCNC(=O)/C(C)=C(/C)C(=O)O)C(=O)N[C@@H](CC(C)C)C(=O)N[C@@H](CC(C)C)C(=O)O [DM-KL3] (X1-K(X1)LLK(X1)LLLK(X1)LWLK(X1)LLK(X1)LLLK(X1)LL-OH; N-terminus and C-terminus assumed) | – | – | 37 | 4.3 | ~8 | 0.087
KLLKLLLKLWLKLLKLLLKLL [KL3] | – | – | 83 | 62 | – | –
